In one assay the test system is Helicoverpa armigera. The assay is described as follows: Helicoverpa armigera diet incorporation method. Type of assay: in vivo. To be noted: third instar larvae, dead and moribund combined, 96 h after release. The method, then: (§1) Test Solutions were Prepared According to the Procedure Described Herein Below (500 PPM):
(§2) • 1. Eppendorf Vortex mixer (ThermoMixer C) and 1.5 mL Eppendorf tubes • 2. Zirconia (Zirconium-Yttrium) beads having diameter of 0.8 to 1.0 mm • 3. Microscope • 4. Beaker 100 mL • 5. Micro-pipette Reagents: • 1. Surfactant Solution • 2. De-mineralized (DM) Water • 1. Weigh 10 mg of the compound of the present invention to be tested in an Eppendorf Tube. • 2. Add 200 mg of the Surfactant Solution into the tube. • 3. Add 600 mg of Zirconia beads into the above mixture. • 4. Fix the tube in Eppendorf Vortex mixer and start vortexing at 2000 rpm. • 5. Mix on Vortex mixer for 30 minutes. After 30 minutes, observe the sample over a microscope at 400× resolution. • 6. If the Maximum particle size is more than 5 μm or average particle size is more than 2 μm or the particle size distribution is uneven, continue vortexing for another 30 minutes and again check the particle size using the microscope. Continue till the average particle size is below 2 microns. • 7. When the required particle size is achieved, add 1.0 mL DM water into the tube, close the cap, shake the tube thoroughly and transfer the contents, along with the beads, into a beaker. • 8. To rinse the tube, add another 1.0 mL of DM water into the tube, close the cap, shake well and transfer this into the same beaker. • 9. Repeat Step no. 8 one more time so that the tube is rinsed well and the compound of the present invention to be tested is transferred to the beaker. • 10. Add 16.8 mL of DM water into the beaker and stir well. • 11. The homogeneous dispersion can then be decanted into a glass vial, immediately, to separate the Zirconia beads. • 12. Immediately use this sample for biological testing. • 13. Further dilutions can be prepared by taking appropriate quantity of the aliquot of Step 10, immediately after stirring, and diluting as per requirement. The sample solution must be well mixed just before biological testing.
Diet incorporation method was used, in which and semi-synthetic diet was incorporated into the test solution when the temperature is approximately 50° C. in the bioassay containers and stirred thoroughly for properly mixing and then was allowed to cool for 30 min. The solidified diet was cut into equal pieces, and then each piece was transferred in one cell in Bio-assay trays. A single third instar starved larva was released into each of these cells of bioassay trays and the tray was covered with the lid. The bio-assay trays were kept under laboratory conditions at a temperature of 25° C. and Relative Humidity of 70%. Observations on dead, moribund and live larvae were recorded at 96 h after the release of larvae. Percent mortality was calculated by combining dead and moribund larvae. The following compound numbers

The next assay has as its system Plutella xylostella. The assay is described as follows: whole plant or invertebrate. Type of assay: in vivo. As to conditions: foliar, cabbage leaf dip, second instar larvae, dead and moribund combined, 72 h after release. The method, then: as §1, §2
Leaf dip method was used for screening, wherein the required quantity of the compounds were weighed and dissolved in the test solution into the tube and vortex at 2000 rpm with Zirconia beads for 90 min for proper mixing, then mixed with 0.01% Triton-X solution to get the desired test concentration. Cabbage leaves were dipped in the solution for 10 seconds, shade dried for 20 min and then transferred to bioassay trays. Single second instar larva was released into each cell and the tray was covered with lid. The bio-assay trays were kept under laboratory conditions at a temperature of 25° C. and relative humidity of 70%. Observations on dead, moribund and live larvae were recorded at 72 h after the release. Percent mortality was calculated by combining dead and moribund larvae. The following compound num.

For orientation: mortality means the share of the test organisms that died. Regarding `Cc1cc2ccnn2c(C(=O)NC2(C)CC2)c1NC(=O)c1cc(Br)nn1-c1ncccc1Cl` [Compound 172, 6-(3-bromo-1-(3-chloropyridin-2-yl)-1H-pyrazole-5-carboxamido)-5-methyl-N-(1-methylcyclopropyl)pyrazolo[1,5-a]pyridine-7-carboxamide], the mortality at 300 ppm in the assay with Helicoverpa armigera is above 70%. For `Cc1cc2ccnn2c(C(=O)NC(C)C(C)C)c1NC(=O)c1cc(Br)nn1-c1ncccc1Cl` (stereo not drawn) [Compound 191, 6-(3-bromo-1-(3-chloropyridin-2-yl)-1H-pyrazole-5-carboxamido)-5-methyl-N-(3-methylbutan-2-yl)pyrazolo[1,5-a]pyridine-7-carboxamide], the mortality at 300 ppm in the assay with Helicoverpa armigera was above 70%.

`COc1cc(C(=O)Nc2c(C)cc3ccnn3c2C(=O)NCc2nccs2)n(-c2ncccc2Cl)n1` [Compound 204, 6-(1-(3-chloropyridin-2-yl)-3-methoxy-1H-pyrazole-5-carboxamido)-5-methyl-N-(thiazol-2-ylmethyl)pyrazolo[1,5-a]pyridine-7-carboxamide]: the mortality at 300 ppm in the assay with Helicoverpa armigera is above 70%. Turning to `CCCNC(=O)c1c(NC(=O)c2cc(OC)nn2-c2ncccc2Cl)c(Br)cc2ccnn12` [Compound 120, 5-bromo-6-(1-(3-chloropyridin-2-yl)-3-methoxy-1H-pyrazole-5-carboxamido)-N-propylpyrazolo[1,5-a]pyridine-7-carboxamide], the mortality at 300 ppm in the assay on Helicoverpa armigera was above 70%.

Consider `O=C(Nc1c(Cl)cc2ccnn2c1C(=O)NCC(F)(F)F)c1cc(Br)nn1-c1ncccc1Cl` [Compound 143, 6-(3-bromo-1-(3-chloropyridin-2-yl)-1H-pyrazole-5-carboxamido)-5-chloro-N-(2,2,2-trifluoroethyl)pyrazolo[1,5-a]pyridine-7-carboxamide], for which the mortality at 300 ppm with Helicoverpa armigera is above 70%. Consider `COCCNC(=O)c1c(NC(=O)c2cc(OC3CSC3)nn2-c2ncccc2Cl)c(C)cc2ccnn12` [Compound 161, 6-(1-(3-chloropyridin-2-yl)-3-(thietan-3-yloxy)-1H-pyrazole-5-carboxamido)-N-(2-methoxyethyl)-5-methylpyrazolo[1,5-a]pyridine-7-carboxamide], for which, in the assay on Helicoverpa armigera, the mortality at 300 ppm was above 70%.

In the case of `CCCNC(=O)c1c(NC(=O)c2cc(Cn3nnc(C(F)(F)F)n3)nn2-c2ncccc2Cl)c(Cl)cc2ccnn12` [Compound 155, 5-chloro-6-(1-(3-chloropyridin-2-yl)-3-((5-(trifluoromethyl)-2H-tetrazol-2-yl)methyl)-1H-pyrazole-5-carboxamido)-N-propylpyrazolo[1,5-a]pyridine-7-carboxamide], in the assay on Helicoverpa armigera, the mortality at 300 ppm is above 70%. Still for that read-out and setting: the result for `Cc1cc2ccnn2c(C(=O)NCC(C)(C)C)c1NC(=O)c1cc(Br)nn1-c1ncccc1Cl` [Compound 175, 6-(3-bromo-1-(3-chloropyridin-2-yl)-1H-pyrazole-5-carboxamido)-5-methyl-N-neopentylpyrazolo[1,5-a]pyridine-7-carboxamide] reads above 70%; that for `COc1cc(C(=O)Nc2c(C)cc3ccnn3c2C(=O)NCC2CCCCO2)n(-c2ncccc2Cl)n1` (stereo not drawn) [Compound 213, 6-(1-(3-chloropyridin-2-yl)-3-methoxy-1H-pyrazole-5-carboxamido)-5-methyl-N-((tetrahydro-2H-pyran-2-yl)methyl)pyrazolo[1,5-a]pyridine-7-carboxamide], above 70%. The same measure, in the same setting: the result for `CONC(=O)c1c(NC(=O)c2cc(OC)nn2-c2ncccc2Cl)c(Br)cc2ccnn12` [Compound 124, 5-bromo-6-(1-(3-chloropyridin-2-yl)-3-methoxy-1H-pyrazole-5-carboxamido)-N-methoxypyrazolo[1,5-a]pyridine-7-carboxamide] reads above 70%.

With `COCCNC(=O)c1c(NC(=O)c2cc(C(F)(F)F)nn2-c2ncccc2Cl)c(C)cc2ccnn12` [Compound 118, 6-(1-(3-chloropyridin-2-yl)-3-(trifluoromethyl)-1H-pyrazole-5-carboxamido)-N-(2-methoxyethyl)-5-methylpyrazolo[1,5-a]pyridine-7-carboxamide], the mortality at 300 ppm with Plutella xylostella is above 70%. As for `Cc1cc2ccnn2c(C(=O)NCC2CCCC2)c1NC(=O)c1cc(Br)nn1-c1ncccc1Cl` [Compound 194, 6-(3-bromo-1-(3-chloropyridin-2-yl)-1H-pyrazole-5-carboxamido)-N-(cyclopentylmethyl)-5-methylpyrazolo[1,5-a]pyridine-7-carboxamide], the mortality at 300 ppm in the assay with Helicoverpa armigera is above 70%. The same measure, in the same setting: the result for `COc1cc(C(=O)Nc2c(Br)cc3ccnn3c2C(=O)NC2CC2)n(-c2ncccc2Cl)n1` [Compound 122, 5-bromo-6-(1-(3-chloropyridin-2-yl)-3-methoxy-1H-pyrazole-5-carboxamido)-N-cyclopropylpyrazolo[1,5-a]pyridine-7-carboxamide] reads above 70%. Regarding `COc1cc(C(=O)Nc2c(C)cc3ccnn3c2C(N)=O)n(-c2ncccc2Cl)n1` [Compound 111, 6-(1-(3-chloropyridin-2-yl)-3-methoxy-1H-pyrazole-5-carboxamido)-5-methylpyrazolo[1,5-a]pyridine-7-carboxamide], the mortality at 300 ppm in the assay with Plutella xylostella was above 70%.

Take `Cc1cc2ccnn2c(C(=O)N2CCC2)c1NC(=O)c1cc(Br)nn1-c1ncccc1Cl` [Compound 34, N-(7-(azetidine-1-carbonyl)-5-methylpyrazolo[1,5-a]pyridin-6-yl)-3-bromo-1-(3-chloropyridin-2-yl)-1H-pyrazole-5-carboxamide]: the mortality at 300 ppm in the assay on Plutella xylostella is above 70%. Regarding `COc1cc(C(=O)Nc2c(Br)cc3ccnn3c2C(=O)NCC2CC2)n(-c2ncccc2Cl)n1` [Compound 123, 5-bromo-6-(1-(3-chloropyridin-2-yl)-3-methoxy-1H-pyrazole-5-carboxamido)-N-(cyclopropylmethyl)pyrazolo[1,5-a]pyridine-7-carboxamide], in the assay with Helicoverpa armigera, the mortality at 300 ppm was above 70%. As for `CONC(=O)c1c(NC(=O)c2cc(OC)nn2-c2ncccc2Cl)c(Cl)cc2ccnn12` [Compound 150, 5-chloro-6-(1-(3-chloropyridin-2-yl)-3-methoxy-1H-pyrazole-5-carboxamido)-N-methoxypyrazolo[1,5-a]pyridine-7-carboxamide], the mortality at 300 ppm with Plutella xylostella is above 70%. Take `COc1cc(C(=O)Nc2c(C)cc3ccnn3c2C(=O)NCCC(C)C)n(-c2ncccc2Cl)n1` [Compound 211, 6-(1-(3-chloropyridin-2-yl)-3-methoxy-1H-pyrazole-5-carboxamido)-N-isopentyl-5-methylpyrazolo[1,5-a]pyridine-7-carboxamide]: the mortality at 300 ppm in the assay with Helicoverpa armigera was above 70%. Turning to `COc1cc(C(=O)Nc2c(C)cc3ccnn3c2C(=O)N2CC(F)(F)C2)n(-c2ncccc2Cl)n1` [Compound 39, 1-(3-chloropyridin-2-yl)-N-(7-(3,3-difluoroazetidine-1-carbonyl)-5-methylpyrazolo[1,5-a]pyridin-6-yl)-3-methoxy-1H-pyrazole-5-carboxamide], the mortality at 300 ppm in the assay on Plutella xylostella was above 70%. On to `CONC(=O)c1c(NC(=O)c2cc(Br)nn2-c2ncccc2Cl)ccc2ccnn12` [Compound 163, 6-(3-bromo-1-(3-chloropyridin-2-yl)-1H-pyrazole-5-carboxamido)-N-methoxypyrazolo[1,5-a]pyridine-7-carboxamide], for which the mortality at 300 ppm with Plutella xylostella is above 70%. On the same count and under the same terms, the result for `CCCNC(=O)c1c(NC(=O)c2cc(OC3CSC3)nn2-c2ncccc2Cl)c(C)cc2ccnn12` [Compound 103, 6-(1-(3-chloropyridin-2-yl)-3-(thietan-3-yloxy)-1H-pyrazole-5-carboxamido)-5-methyl-N-propylpyrazolo[1,5-a]pyridine-7-carboxamide] reads above 70%.
